{"source": "paper PMC11971462", "about": "“Generation and validation of a novel multitarget small molecule in glioblastoma” (Cell Death & Disease, 2025)", "key": {"HDAC6": {"target": "HDAC6 (Homo sapiens, UniProt Q9UBN7)", "sequence (Q9UBN7 whole entry)": "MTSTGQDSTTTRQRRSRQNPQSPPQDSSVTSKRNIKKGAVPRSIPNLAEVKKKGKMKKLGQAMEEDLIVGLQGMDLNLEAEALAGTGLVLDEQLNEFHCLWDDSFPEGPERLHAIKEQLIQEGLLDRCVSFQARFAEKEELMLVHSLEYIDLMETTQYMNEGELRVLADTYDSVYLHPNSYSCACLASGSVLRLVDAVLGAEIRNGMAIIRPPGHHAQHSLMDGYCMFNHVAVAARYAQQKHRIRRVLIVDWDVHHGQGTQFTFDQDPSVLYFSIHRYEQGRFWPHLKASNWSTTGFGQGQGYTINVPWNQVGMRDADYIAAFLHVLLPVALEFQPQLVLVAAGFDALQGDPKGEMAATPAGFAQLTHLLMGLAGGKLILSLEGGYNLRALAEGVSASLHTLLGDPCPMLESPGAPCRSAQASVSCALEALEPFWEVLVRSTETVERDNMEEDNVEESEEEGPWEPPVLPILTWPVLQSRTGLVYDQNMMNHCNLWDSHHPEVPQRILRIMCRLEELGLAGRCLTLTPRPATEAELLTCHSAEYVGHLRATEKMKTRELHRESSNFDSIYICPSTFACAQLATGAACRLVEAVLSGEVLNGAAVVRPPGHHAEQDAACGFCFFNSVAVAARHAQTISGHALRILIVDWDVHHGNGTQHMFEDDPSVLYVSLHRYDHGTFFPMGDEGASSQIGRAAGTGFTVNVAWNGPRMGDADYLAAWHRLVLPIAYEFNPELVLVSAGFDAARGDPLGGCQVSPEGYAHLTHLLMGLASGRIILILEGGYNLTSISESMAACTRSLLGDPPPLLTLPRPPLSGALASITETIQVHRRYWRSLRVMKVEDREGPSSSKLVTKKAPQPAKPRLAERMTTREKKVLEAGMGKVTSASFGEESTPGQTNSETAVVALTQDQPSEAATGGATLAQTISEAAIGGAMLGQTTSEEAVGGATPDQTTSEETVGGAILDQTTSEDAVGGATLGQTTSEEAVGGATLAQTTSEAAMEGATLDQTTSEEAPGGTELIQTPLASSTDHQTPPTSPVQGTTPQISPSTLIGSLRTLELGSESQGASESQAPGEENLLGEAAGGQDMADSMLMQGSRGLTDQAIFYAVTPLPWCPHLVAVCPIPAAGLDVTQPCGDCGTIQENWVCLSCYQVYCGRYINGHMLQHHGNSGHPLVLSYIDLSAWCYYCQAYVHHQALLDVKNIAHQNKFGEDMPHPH", "test": "HDAC6 enzyme inhibition", "format": "biochemical", "conditions": "read-out: HDAC inhibition IC50 HDAC6", "protocol": "(§1) The inhibitory capacity of DDI199 on HDACs was studied as previously described. The capacity of DDI199 to inhibit MAOs was studied by mimicking the reaction occurring in cells. Briefly, inhibitor solution containing 10 µM of DDI199 or reference compound was incubated for 30 minutes at 37 °C together with the enzyme solution, containing either recombinant hMAO-A (Sigma-Aldrich) at 0.5 U/mL or hMAO-B (Sigma-Aldrich) at 1.5 U/mL. 200 U/mL horseradish peroxidase (Sigma-Aldrich), 20 mM Ampliflu Red (Sigma-Aldrich) and 100 mM tyramine hydrochloride (Sigma-Aldrich) were then added and absorbance at 570 nm was measured every 5 minutes for 30 minutes. Percentage of inhibition was estimated from these values."}, "recombinant hMAO-A": {"target": "T1, recombinant hMAO-A (Homo sapiens, UniProt P21397)", "T1 construct": "purchased Sigma-Aldrich", "T1 sequence (P21397 whole entry)": "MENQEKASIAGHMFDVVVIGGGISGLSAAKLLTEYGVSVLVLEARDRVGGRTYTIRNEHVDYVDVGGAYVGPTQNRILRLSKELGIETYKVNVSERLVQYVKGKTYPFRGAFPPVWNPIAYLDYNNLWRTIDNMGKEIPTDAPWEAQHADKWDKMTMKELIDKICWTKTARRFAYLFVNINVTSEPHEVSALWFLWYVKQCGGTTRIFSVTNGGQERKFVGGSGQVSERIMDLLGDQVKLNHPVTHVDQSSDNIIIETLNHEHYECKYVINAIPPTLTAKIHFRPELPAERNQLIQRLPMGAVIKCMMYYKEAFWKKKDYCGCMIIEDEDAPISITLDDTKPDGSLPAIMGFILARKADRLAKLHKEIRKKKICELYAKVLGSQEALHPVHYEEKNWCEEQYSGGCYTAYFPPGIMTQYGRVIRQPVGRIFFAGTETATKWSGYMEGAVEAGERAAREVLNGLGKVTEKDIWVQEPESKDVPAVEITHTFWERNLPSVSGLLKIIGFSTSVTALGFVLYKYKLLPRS", "test": "MAO-A inhibition (Ampliflu Red/peroxidase, tyramine)", "format": "biochemical", "conditions": "10 µM compound; read-out: MAO-A inhibition percentage", "protocol": "as §1"}, "recombinant hMAO-B": {"target": "T2, recombinant hMAO-B (Homo sapiens, UniProt P27338)", "T2 construct": "purchased Sigma-Aldrich", "T2 sequence (P27338 whole entry)": "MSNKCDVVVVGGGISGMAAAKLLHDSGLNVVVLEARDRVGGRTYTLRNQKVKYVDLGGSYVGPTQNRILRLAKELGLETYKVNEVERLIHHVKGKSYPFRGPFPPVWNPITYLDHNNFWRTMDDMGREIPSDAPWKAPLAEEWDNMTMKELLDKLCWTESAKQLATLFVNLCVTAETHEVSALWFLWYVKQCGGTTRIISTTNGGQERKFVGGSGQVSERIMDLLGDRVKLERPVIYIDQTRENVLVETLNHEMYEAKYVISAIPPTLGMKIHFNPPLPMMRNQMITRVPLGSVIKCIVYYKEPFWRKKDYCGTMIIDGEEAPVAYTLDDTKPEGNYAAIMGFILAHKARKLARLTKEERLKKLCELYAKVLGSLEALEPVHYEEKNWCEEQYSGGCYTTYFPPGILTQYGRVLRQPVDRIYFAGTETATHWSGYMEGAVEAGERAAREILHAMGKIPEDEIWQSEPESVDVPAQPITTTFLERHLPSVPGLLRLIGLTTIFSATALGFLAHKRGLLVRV", "test": "biochemical", "protocol": "as §1"}, "recombinant hAChE": {"target": "T3, recombinant hAChE (Homo sapiens, UniProt P22303)", "T3 construct": "purchased Sigma-Aldrich", "T3 sequence (P22303 32-614)": "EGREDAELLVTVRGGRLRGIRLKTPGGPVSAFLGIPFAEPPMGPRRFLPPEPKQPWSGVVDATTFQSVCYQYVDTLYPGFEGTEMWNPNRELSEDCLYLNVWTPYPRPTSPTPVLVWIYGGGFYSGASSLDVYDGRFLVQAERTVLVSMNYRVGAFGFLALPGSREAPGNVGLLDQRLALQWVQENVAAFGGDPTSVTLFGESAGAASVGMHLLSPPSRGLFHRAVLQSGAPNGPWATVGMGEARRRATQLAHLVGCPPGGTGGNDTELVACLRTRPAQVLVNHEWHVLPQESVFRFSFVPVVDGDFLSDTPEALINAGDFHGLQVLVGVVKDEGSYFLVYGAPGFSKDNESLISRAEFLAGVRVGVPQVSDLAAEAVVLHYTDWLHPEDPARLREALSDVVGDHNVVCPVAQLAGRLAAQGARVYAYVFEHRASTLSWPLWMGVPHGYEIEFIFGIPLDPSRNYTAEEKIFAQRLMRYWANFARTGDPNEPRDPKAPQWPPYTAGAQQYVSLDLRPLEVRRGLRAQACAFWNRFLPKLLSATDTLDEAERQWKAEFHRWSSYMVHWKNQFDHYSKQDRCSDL", "test": "AChE inhibition, Ellman's colorimetric method", "format": "biochemical", "conditions": "10 µM compound; read-out: AChE inhibition percentage", "protocol": "Similarly, Ellman’s colorimetric method was used to study the inhibitory capacity of the compound on ChEs. Enzyme solution containing either recombinant hAChE (Sigma-Aldrich) at 0.5 U/mL or hBChE (Sigma-Aldrich) at 0.25 U/mL was incubated with inhibitor solution containing 10 µM of DDI199 or reference compound and 0.3 mM of DTNB (Sigma-Aldrich) for 20 minutes at 37 °C. […] In addition, kinetic of enzyme inhibition was also studied by repeating the same protocol and using five different concentrations of the substrate and four different concentrations of the inhibitor. Results were represented in a Lineweaver-Burk plot using GraphPad Prism software, and the constant of inhibition (Ki) was estimated from the point at which the line cuts the x-axis at the secondary plot."}, "[1]": {"tested_on": "GNS166 patient-derived glioma stem cells", "test": "MTT cell viability", "format": "cell-based", "conditions": "Homo sapiens, 72 h", "protocol": "(§2) MTT assay was used to study cell viability. For that, cells were seeded at a density of 1.5 × 10^3 cells/well in 96-well plates, incubated overnight and then treated with increasing concentrations of DDI199. After 72 h of treatment, MTT absorbance was measured at 570 nm. GraphPad Prism software was used to analyze results and calculate IC50 values."}, "[2]": {"tested_on": "GNS179 patient-derived glioma stem cells", "test": "MTT cell viability", "format": "cell-based", "conditions": "Homo sapiens, 72 h", "protocol": "as §2"}, "[3]": {"tested_on": "Normal Human Astrocytes (NHA)", "test": "MTT cell viability", "format": "cell-based", "conditions": "Astrocyte, 72 h", "protocol": "as §2"}, "U251-MG glioma cells": {"tested_on": "U251-MG glioma cells", "test": "MTT cell viability", "format": "cell-based", "conditions": "Homo sapiens, U-251, 72 h", "protocol": "as §2"}, "U87-MG glioma cells": {"tested_on": "U87-MG glioma cells", "test": "MTT cell viability", "format": "cell-based", "conditions": "Homo sapiens, U-87 MG, 72 h", "protocol": "as §2"}, "[4]": {"tested_on": "gastric cancer MKN45 cells", "test": "MTT cell viability", "format": "cell-based", "conditions": "Homo sapiens, MKN-45, 72 h", "protocol": "as §2"}, "[5]": {"tested_on": "lung cancer NCI-H1299 cells", "test": "MTT cell viability", "format": "cell-based", "conditions": "Homo sapiens, 72 h", "protocol": "as §2"}, "[6]": {"tested_on": "pancreatic cell line RWP1", "test": "MTT cell viability", "format": "cell-based", "conditions": "Homo sapiens, 72 h", "protocol": "as §2"}, "glioma cells": {"tested_on": "glioma cells", "test": "MTT cell viability, summary for glioma cells", "format": "cell-based", "conditions": "Homo sapiens, 72 h, summary statement, read-out: IC50 cell viability in different glioma cells", "protocol": "as §2"}, "GNS166 cells": {"tested_on": "GNS166 cells", "test": "Western blot of HDAC6, HDAC1, acetyl α-tubulin, acetyl H3", "format": "cell-based, human", "conditions": "U87-MG and glioma stem cells (GNS166)", "protocol": "(§3) Protein lysates were resolved using sodium dodecyl sulfate-polyacrylamide gel electrophoresis. Primary antibodies against HDAC1 (Ab109411, abcam), HDAC6 (7558S, Cell Signaling), acetyl H3 (9649, Cell Signaling), acetyl α-tubulin (Ab24610, abcam), acetylated-Lysine (9441, Cell Signaling) and β-actin (A5441, Sigma-Aldrich) were used. Membranes were then incubated with the corresponding anti-rabbit (7074S, Cell Signaling) or anti-mouse (7076S, Cell Signaling) secondary antibody conjugated to horseradish peroxidase (HRP), and NOVEX ECL Chemi Substrate (ThermoFisher) or SuperSignal West Femto Maximum Sensitivity Substrate (ThermoFisher) was used for protein detection by iBright imaging system."}, "U87-MG cells [7]": {"tested_on": "U87-MG cells", "test": "Western blot of HDAC6, HDAC1, acetyl α-tubulin, acetyl H3", "format": "cell-based, human", "protocol": "as §3"}, "[8]": {"test": "In vivo toxicity assay (body weight, organ macroscopy)", "design": "species or system athymic nude-Foxn1nu mice", "conditions": "intraperitoneal 15 mg/mL, 5 times per week for 4 weeks", "protocol": "15 mg/mL of DDI199 or vehicle (DMSO) were intraperitoneally injected in athymic nude-Foxn1^nu mice following a schedule of 5 days on and 2 days off and changes in body weight were measured to assess the potential toxicity of the MSM. At the end-point macroscopic analysis of the different organs was done."}, "U87-MG cells [9]": {"tested_on": "U87-MG cells", "test": "Cell viability with TMZ and DDI199 alone or combined", "format": "cell-based, human", "conditions": "72 h", "protocol": "as §2"}, "U87-MG and U251-MG cells": {"tested_on": "U87-MG and U251-MG cells", "test": "Immunofluorescence of pH3 and Cleaved Caspase-3", "format": "cell-based, human", "conditions": "U87-MG and U251-MG, 1, 5 and 10 μM", "protocol": "Immunofluorescence assays were performed following standard procedures. Cells were seeded at a density of 2 × 10^4 cells/well in 8-well immunofluorescence chambers (LabTek Thermo) and incubated overnight before treating with increasing concentrations of DDI199. After 48 h, cells were fixed with 4% PFA. Primary antibodies against phosphohistone H3 (pH3) (ab14955, abcam), Cleaved Caspase 3 (AF385, R&D Systems), Ki67 (ab15580, abcam) and PARP1 (ab32064, abcam) were used. Secondary antibodies were Alexa Fluor anti-mouse (A21422, Invitrogen) and Alexa Fluor anti-rabbit (A31572, Invitrogen), and chromatin was stained with DAPI (D9541, Sigma-Aldrich). Axio Observer 7 epifluorescence microscope was used to take pictures, which were later quantified in Qupath."}}, "note": "“And” between values parts separate entries of the source, which are not always exact repeats. Equal values may be shown once.", "data": [{"smiles": "C#CCN(Cc1cc2cc(OCCCN3CCCCC3)ccc2n1S(=O)(=O)c1ccccc1)C(=O)CCCCCCC(=O)NO", "note": "[DDI199]", "values": [{"measurement": "IC50", "setting": "HDAC6", "value": "0.095 µM and 0.09 µM"}, {"measurement": "inhibition at 10 µM", "setting": "recombinant hMAO-A", "value": 35, "unit": "%"}, {"measurement": "inhibition at 10 µM", "setting": "recombinant hMAO-B; 10 µM compound, read-out: MAO-B inhibition percentage", "value": 55, "unit": "%"}, {"measurement": "IC50", "setting": "recombinant hMAO-B; read-out: MAO-B IC50", "value": 14.9, "unit": "µM"}, {"measurement": "inhibition at 10 µM", "setting": "recombinant hAChE", "value": 25, "unit": "%"}, {"measurement": "IC50", "setting": "[1]", "value": 13, "unit": "µM"}, {"measurement": "IC50", "setting": "[2]", "value": 5.28, "unit": "µM"}, {"measurement": "IC50", "setting": "[3]", "value": 7, "unit": "µM"}, {"measurement": "IC50", "setting": "U251-MG glioma cells", "value": 5.45, "unit": "µM"}, {"measurement": "IC50", "setting": "U87-MG glioma cells", "value": 3.23, "unit": "µM"}, {"measurement": "IC50", "setting": "[4]", "value": 2.61, "unit": "µM"}, {"measurement": "IC50", "setting": "[5]", "value": 3.33, "unit": "µM"}, {"measurement": "IC50", "setting": "[6]", "value": 0.88, "unit": "µM"}, {"measurement": "IC50", "setting": "glioma cells", "value": "< 5", "unit": "µM"}, {"measurement": "acetylated α-tubulin and acetylated H3 versus reference inhibitors", "setting": "GNS166 cells", "value": "higher acetylated α-tubulin and acetylated H3 increase than SAHA and Tubastatin A"}, {"measurement": "acetylated H3 level", "setting": "U87-MG cells [7]; U87-MG, 0.5, 1 and 10 µM", "value": "increased their levels with increasing concentrations"}, {"measurement": "acetylated α-tubulin level", "setting": "U87-MG cells [7]; U87-MG, 0.5, 1 and 10 µM", "value": "increased their levels with increasing concentrations"}, {"measurement": "HDAC1 protein level", "setting": "U87-MG cells [7]; U87-MG, western blot", "value": "decrease"}, {"measurement": "HDAC6 protein level", "setting": "U87-MG cells [7]; U87-MG, western blot", "value": "did not alter"}, {"measurement": "Body weight of animals compared to controls", "setting": "[8]", "value": "did not significantly affect the body weight"}, {"measurement": "Macroscopic analysis of organs at end-point", "setting": "[8]", "value": "did not observe any difference"}, {"measurement": "Cytotoxicity in combination with TMZ", "setting": "U87-MG cells [9]; 0.5 µM DDI199 + 250 µM TMZ", "value": "over 70%"}, {"measurement": "Cell viability, single agent", "setting": "U87-MG cells [9]; 250 µM TMZ or 0.5 µM DDI199 alone", "value": "reduced cell viability"}, {"measurement": "Caspase-3 positive cells", "setting": "U87-MG and U251-MG cells", "value": "markedly increased"}, {"measurement": "p-H3 positive cells", "setting": "U87-MG and U251-MG cells", "value": "reduced"}]}]}
